Data taken from ChEMBL document CHEMBL5356956, “Optimizing and characterizing 4-methyl substituted pyrazol-3-carboxamides leading to the peripheral cannabinoid 1 receptor inverse agonist TM38837” (Bioorg Med Chem Lett, 2024).
Values after ≈ are worked out from the molar mass of the structure shown. One block for each molecule: values may come before it. Active and inactive are the calls of the source. No cut-off for these calls is given here.

Columns and labels:
[1] = Drug concentration in DIO mouse adipose tissue at 10 mg/kg, po measured for 6 hrs relative to plasma concentration; type: ADME, organism-based; details: other tissue
[2] = Drug concentration in DIO mouse brain at 10 mg/kg, po measured for 6 hrs relative to plasma concentration; type: ADME, organism-based
[3] = Drug concentration in DIO mouse brain at 10 mg/kg, po measured for 6 hrs; type: ADME, organism-based; details: read-out: Drug uptake
[4] = Drug concentration in DIO mouse brain at 10 mg/kg, po measured for 24 hrs; type: ADME, organism-based; details: for Drug uptake: in vivo, po, 10 mg/kg, 24 h, BLD = below limit of detection
[5] = Drug concentration in DIO mouse adipose tissue at 10 mg/kg, po measured for 6 hrs; type: ADME, organism-based; details: read-out: Drug uptake
[6] = Drug concentration in DIO mouse liver at 10 mg/kg, po measured for 6 hrs; type: ADME, organism-based; details: read-out: Drug uptake
[7] = Lipophilicity, logD of compound by chromatographic analysis; type: physicochemical
[8] = molecular target: T1, Cannabinoid receptor 1 (Homo sapiens, UniProt P21554); test: Antagonist activity at human CB1 receptor expressed in CHO-K1 cell membrane in presence of CP55940 by GTP-gamma-S assay; type: functional, cell membranes
[9] = molecular target: T1, Cannabinoid receptor 1; test: Inverse agonist activity at human CB1 receptor expressed in CHO-K1 cell membrane by GTP-gamma-S assay; type: functional, cell membranes
[10] = molecular target: T1, Cannabinoid receptor 1; test: Inverse agonist activity at human CB1 receptor expressed in African green monkey COS7 cells co-expressing G-protein in presence of CP55940 by IP3 assay; type: functional, cell membranes, Membrane
[11] = molecular target: Cannabinoid receptor 2 (Homo sapiens, UniProt P34972); test: Inverse agonist activity at human CB2 receptor expressed in CHO-K1 cell membrane in presence of CP55940 by GTP-gamma-S assay; type: functional, cell membranes
[12] = Half life in NMRI mouse at 2 mg/kg, iv; type: ADME, organism-based; details: in vivo
[13] = Clearance in NMRI mouse at 2 mg/kg, iv; type: ADME, organism-based; details: in vivo
[14] = Volume of distribution at steady state in NMRI mouse at 2 mg/kg, iv; type: ADME, organism-based; details: in vivo, read-out: Vdss
[15] = Cmax in NMRI mouse at 10 mg/kg, po; type: ADME, organism-based; design: dose 10 mg/kg, route po; details: in vivo
[16] = Tmax in NMRI mouse at 10 mg/kg, po; type: ADME, organism-based; details: in vivo
[17] = Half life in NMRI mouse at 10 mg/kg, po; type: ADME, organism-based; details: in vivo
[18] = Oral bioavailability in NMRI mouse at 10 mg/kg; type: ADME, organism-based; details: in vivo
[19] = Protein binding in NMRI mouse plasma; type: ADME, cell-free; details: read-out: PPB
[20] = Efflux ratio of permeability in human Caco-2 cells; type: ADME, cell-based
[21] = Drug concentration in NMRI mouse brain relative to plasma concentration; type: ADME, tissue-based
[22] = Subchronic toxicity in DIO mouse assessed as reduction in body weight at 10 mg/kg, po measured after 7 days; type: organism-based; design: scale not given: the % may be the effect or the level left; details: in vivo, 168 h, time 7 day
[23] = Drug concentration in DIO mouse plasma at 10 mg/kg, po measured for 6 hrs; type: ADME, organism-based
[24] = Solubility of compound; type: physicochemical
[25] = Clearance in rat hepatocytes assessed per million cells; type: ADME, cell-based, Hepatocyte
[26] = molecular target: hERG (Homo sapiens, UniProt Q12809); test: Inhibition of hERG at 10 uM by patch clamp assay relative to control; type: toxicity
[27] = molecular target: CYP2C9 (Homo sapiens, UniProt P11712); test: Inhibition of CYP2C9 (unknown origin) at 10 uM relative to control; type: ADME
[28] = Drug uptake in brain of lean C57BL/6J mouse by autoradiography; type: ADME, tissue-based; details: in vivo
[29] = Drug concentration in DIO mouse adipose tissue assessed as fold increase at 10 mg/kg, po measured for 6 hrs relative to plasma concentration; type: ADME, organism-based; details: read-out: FC
[30] = In vivo inverse agonist activity at CB1 receptor in DIO mouse assessed as efficacy at 10 mg/kg, po measured after 6 hrs; type: functional
[31] = molecular target: T2, Glucose-dependent insulinotropic receptor (Homo sapiens) (UniProt Q8TDV5); test: Inhibition of GPR119 (unknown origin) at 1 uM relative to control
T2 sequence (whole entry): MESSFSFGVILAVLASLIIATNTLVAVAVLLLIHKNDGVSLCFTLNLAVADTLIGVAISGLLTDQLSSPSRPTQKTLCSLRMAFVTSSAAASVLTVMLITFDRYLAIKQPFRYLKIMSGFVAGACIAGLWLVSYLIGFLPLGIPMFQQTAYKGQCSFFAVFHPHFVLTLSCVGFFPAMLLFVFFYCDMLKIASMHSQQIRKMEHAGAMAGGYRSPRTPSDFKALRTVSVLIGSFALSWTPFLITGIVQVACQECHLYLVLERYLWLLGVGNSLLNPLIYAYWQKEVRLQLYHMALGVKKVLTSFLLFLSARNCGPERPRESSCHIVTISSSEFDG

[32] = molecular target: G-protein coupled receptor 55 (Homo sapiens) (UniProt Q9Y2T6); test: Inhibition of GPR55 (unknown origin) at 1 uM relative to control
[33] = system: Liver; test: In vivo inhibition of CB1 receptor in liver of lean C57BL/6J mouse by autoradiography; type: functional, organism-based
[34] = AUC (infinity) in NMRI mouse at 2 mg/kg, iv; type: ADME, organism-based; design: dose 2 mg/kg, route iv; details: in vivo
[35] = AUC (infinity) in NMRI mouse at 10 mg/kg, po; type: ADME, organism-based; design: dose 10 mg/kg, route po; details: in vivo
[36] = Cmax in NMRI mouse at 30 mg/kg, po; type: ADME, organism-based; design: dose 30 mg/kg, route po; details: in vivo
[37] = Tmax in NMRI mouse at 30 mg/kg, po; type: ADME, organism-based; details: in vivo
[38] = Half life in NMRI mouse at 30 mg/kg, po; type: ADME, organism-based; details: in vivo
[39] = AUC (infinity) in NMRI mouse at 30 mg/kg, po; type: ADME, organism-based; design: dose 30 mg/kg, route po; details: in vivo
[40] = Oral bioavailability in NMRI mouse at 30 mg/kg; type: ADME, organism-based; details: in vivo
[41] = molecular target: Voltage-gated inwardly rectifying potassium channel KCNH2 (Homo sapiens, UniProt Q12809); test: Inhibition of hERG by patch clamp assay; type: toxicity
Sequence of Voltage-gated inwardly rectifying potassium channel KCNH2 (Q12809 whole entry): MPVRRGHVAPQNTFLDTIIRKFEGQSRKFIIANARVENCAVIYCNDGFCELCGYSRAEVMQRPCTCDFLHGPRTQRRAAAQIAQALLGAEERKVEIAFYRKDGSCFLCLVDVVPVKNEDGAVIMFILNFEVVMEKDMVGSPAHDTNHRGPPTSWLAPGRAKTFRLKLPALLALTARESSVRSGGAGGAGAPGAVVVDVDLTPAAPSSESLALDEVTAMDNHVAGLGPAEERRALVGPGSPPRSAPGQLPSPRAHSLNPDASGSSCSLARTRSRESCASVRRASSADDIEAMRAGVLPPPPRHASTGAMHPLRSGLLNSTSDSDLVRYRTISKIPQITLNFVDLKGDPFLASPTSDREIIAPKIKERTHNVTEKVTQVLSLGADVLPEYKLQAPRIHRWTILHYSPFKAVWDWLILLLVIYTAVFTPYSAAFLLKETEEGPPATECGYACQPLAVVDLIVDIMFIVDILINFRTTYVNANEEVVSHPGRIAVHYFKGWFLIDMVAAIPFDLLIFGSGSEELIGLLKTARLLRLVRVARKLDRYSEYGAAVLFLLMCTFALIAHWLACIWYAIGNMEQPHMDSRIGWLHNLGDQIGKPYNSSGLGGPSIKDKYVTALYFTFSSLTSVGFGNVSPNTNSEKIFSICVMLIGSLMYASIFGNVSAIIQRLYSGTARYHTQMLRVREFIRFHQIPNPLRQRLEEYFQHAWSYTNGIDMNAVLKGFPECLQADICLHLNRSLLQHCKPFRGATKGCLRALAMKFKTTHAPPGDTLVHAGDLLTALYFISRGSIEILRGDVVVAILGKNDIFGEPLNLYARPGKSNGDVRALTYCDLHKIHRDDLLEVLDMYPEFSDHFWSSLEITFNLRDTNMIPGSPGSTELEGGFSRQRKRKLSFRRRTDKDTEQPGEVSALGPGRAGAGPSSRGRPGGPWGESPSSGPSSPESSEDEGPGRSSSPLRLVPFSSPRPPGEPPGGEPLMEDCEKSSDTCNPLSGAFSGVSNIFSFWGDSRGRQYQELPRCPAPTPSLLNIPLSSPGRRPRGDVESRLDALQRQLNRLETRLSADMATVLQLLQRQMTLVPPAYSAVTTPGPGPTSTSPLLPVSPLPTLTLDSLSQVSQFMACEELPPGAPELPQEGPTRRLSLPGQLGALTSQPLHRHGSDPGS

Sequence of Cannabinoid receptor 2 (P34972 whole entry): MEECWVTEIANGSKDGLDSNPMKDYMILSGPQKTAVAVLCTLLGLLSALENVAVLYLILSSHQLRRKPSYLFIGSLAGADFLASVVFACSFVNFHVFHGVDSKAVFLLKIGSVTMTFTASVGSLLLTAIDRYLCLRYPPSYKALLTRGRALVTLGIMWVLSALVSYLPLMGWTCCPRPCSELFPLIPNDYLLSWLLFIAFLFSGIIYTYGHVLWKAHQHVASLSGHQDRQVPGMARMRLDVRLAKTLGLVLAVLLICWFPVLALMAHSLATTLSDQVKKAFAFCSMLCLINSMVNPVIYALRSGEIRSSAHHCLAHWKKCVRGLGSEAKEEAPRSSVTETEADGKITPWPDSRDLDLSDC
T1 sequence (P21554 whole entry): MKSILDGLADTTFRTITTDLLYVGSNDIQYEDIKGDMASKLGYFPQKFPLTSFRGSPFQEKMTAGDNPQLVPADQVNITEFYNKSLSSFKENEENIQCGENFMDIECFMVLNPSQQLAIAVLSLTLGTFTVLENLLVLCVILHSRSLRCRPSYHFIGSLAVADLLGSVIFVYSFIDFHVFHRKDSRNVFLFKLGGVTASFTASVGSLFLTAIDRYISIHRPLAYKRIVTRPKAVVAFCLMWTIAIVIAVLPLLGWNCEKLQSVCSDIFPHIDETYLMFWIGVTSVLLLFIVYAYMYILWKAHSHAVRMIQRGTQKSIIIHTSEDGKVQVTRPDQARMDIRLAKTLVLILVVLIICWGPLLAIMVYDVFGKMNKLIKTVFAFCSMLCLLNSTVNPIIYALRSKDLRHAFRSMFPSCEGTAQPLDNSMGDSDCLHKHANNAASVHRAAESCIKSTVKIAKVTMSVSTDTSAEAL
Sequence of hERG (Q12809 whole entry): as the sequence (Q12809 whole entry) above
Sequence of G-protein coupled receptor 55 (Homo sapiens) (Q9Y2T6 whole entry): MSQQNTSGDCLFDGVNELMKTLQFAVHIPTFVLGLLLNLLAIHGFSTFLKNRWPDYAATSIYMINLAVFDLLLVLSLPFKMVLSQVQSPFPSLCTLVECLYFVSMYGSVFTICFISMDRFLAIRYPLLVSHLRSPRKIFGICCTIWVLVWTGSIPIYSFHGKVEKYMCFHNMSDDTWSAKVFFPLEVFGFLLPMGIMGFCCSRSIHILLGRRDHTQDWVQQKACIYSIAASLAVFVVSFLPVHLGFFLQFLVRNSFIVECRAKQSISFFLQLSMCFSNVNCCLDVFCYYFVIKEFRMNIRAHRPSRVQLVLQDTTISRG
Sequence of CYP2C9 (P11712 whole entry): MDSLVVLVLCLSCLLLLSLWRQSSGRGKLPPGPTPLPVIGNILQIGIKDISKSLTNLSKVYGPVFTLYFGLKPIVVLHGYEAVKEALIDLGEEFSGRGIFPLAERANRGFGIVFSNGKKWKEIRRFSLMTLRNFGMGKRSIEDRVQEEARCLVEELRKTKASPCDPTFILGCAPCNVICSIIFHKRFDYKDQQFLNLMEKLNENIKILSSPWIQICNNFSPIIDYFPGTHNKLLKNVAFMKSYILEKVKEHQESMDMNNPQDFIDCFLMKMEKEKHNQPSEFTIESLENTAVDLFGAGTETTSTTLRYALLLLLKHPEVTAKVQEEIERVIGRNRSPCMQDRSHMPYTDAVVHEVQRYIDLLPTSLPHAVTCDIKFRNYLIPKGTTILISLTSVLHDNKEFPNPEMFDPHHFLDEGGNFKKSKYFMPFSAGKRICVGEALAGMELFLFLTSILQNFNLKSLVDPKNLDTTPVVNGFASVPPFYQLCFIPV

Drug uptake [1]: 4%
Drug uptake [2]: 0.6%
concentration at 6 h [3]: 0.22 µM
Drug uptake [4]: Bld
concentration at 6 h [5]: 1.5 µM
concentration at 6 h [6]: 10 µM
chromatographic logD [7]: 2.6
IC50 [8]: 4.8 nM
IC50 [9]: 51 nM
IC50 [10]: 2.9 nM
IC50 [11]: > 10000 nM
half-life [12]: 3.1 h
clearance [13]: 2.1 mL/min/kg
Vd [14]: 0.6 L/kg
Cmax [15]: 47 µM
Tmax [16]: 0.5 h
half-life [17]: 2.2 h
bioavailability [18]: 88%
fraction unbound [19]: < 0.01
efflux ratio [20]: 1.3
Drug uptake [21]: ~ 1%
concentration at 6 h [23]: 38 µM
SMILES: O=C(O)Cc1c(C(=O)N2CCC(c3ccccc3F)CC2)nn(-c2ccccc2Cl)c1-c1ccc(Cl)cc1
Activity [22]: 6.4%

solubility [24]: 81 µM (≈ 43.8 µg/mL)
CLH [25]: 18 µL/min/1e6 cells
SMILES: NC(=O)Cc1c(C(=O)NC2CCN(C(=O)C3CC3)CC2)nn(-c2ccccc2Cl)c1-c1ccc(Cl)cc1
inhibition at 10 µM [26]: 24%

SMILES: C[C@@H](NC(=O)c1nn(-c2ccccc2Cl)c(-c2ccc(Cl)cc2)c1Cc1nn[nH]n1)c1ccc(C(F)(F)F)cc1
inhibition at 10 µM [27]: 39%
Drug uptake [28]: Active
Drug uptake [2]: 1.3%
concentration at 6 h [3]: 0.08 µM
concentration at 24 h ([4]; brain, read-out: Drug uptake): 0.02 µM
concentration at 6 h [5]: 1.2 µM
concentration at 6 h [6]: 47 µM
Kp at 6 h [29]: 5
Efficacy [30]: 11%
inhibition [31]: < 30%
inhibition [32]: < 30%
inhibition [33]: Active
chromatographic logD [7]: 2.8
IC50 [8]: 6.7 nM
IC50 [9]: 24 nM
IC50 [10]: 3.3 nM
IC50 [11]: 4500 nM
solubility [24]: 250 µM (≈ 147 µg/mL)
CLH [25]: 16 µL/min/1e6 cells
half-life [12]: 2.5 h
clearance [13]: 2.6 mL/min/kg
Vd [14]: 0.4 L/kg
Cmax [15]: 13 µM
Tmax [16]: 2 h
half-life [17]: 3.1 h
bioavailability [18]: 95%
AUC(0-inf) [34]: 22 µM·h
AUC(0-inf) [35]: 104 µM·h
Cmax [36]: 41 µM
Tmax [37]: 2 h
half-life [38]: 4 h
AUC(0-inf) [39]: 297 µM·h
bioavailability [40]: 91%
fraction unbound [19]: < 0.01
efflux ratio [20]: 1
Drug uptake [21]: ~ 1%
Activity [22]: 11.4%
concentration at 6 h [23]: 6.5 µM

IC50 [9]: 0.45 nM
IC50 [10]: 1.8 nM
IC50 [11]: 7900 nM
CLH [25]: 8 µL/min/1e6 cells
SMILES: NC(=O)Cc1c(C(=O)N2CCC(O)(c3ccc(F)cc3)CC2)nn(-c2ccccc2Cl)c1-c1ccc(Cl)cc1
inhibition at 10 µM [26]: 93%
IC50 [41]: 800 nM

Drug uptake [1]: 4%
Drug uptake [2]: 0.8%
concentration at 6 h [3]: 0.07 µM
Drug uptake [4]: Bld
concentration at 6 h [5]: 0.35 µM
concentration at 6 h [6]: 9.5 µM
chromatographic logD [7]: 2.7
IC50 [8]: 18 nM
IC50 [9]: 300 nM
IC50 [10]: 18 nM
IC50 [11]: > 10000 nM
concentration at 6 h [23]: 9 µM
SMILES: O=C(O)Cc1c(C(=O)N2CCC(c3ccc(F)cc3)CC2)nn(-c2ccccc2Cl)c1-c1ccc(Cl)cc1
Activity [22]: 0.2%

SMILES: C[C@@H](NC(=O)c1nn(-c2ccccc2Cl)c(-c2ccc(Cl)cc2)c1Cc1nn[nH]n1)c1ccc(OC(F)(F)F)cc1
Drug uptake [2]: 1.3%
concentration at 6 h [3]: 0.16 µM
concentration at 6 h [5]: 4 µM
concentration at 6 h [6]: 35 µM
Kp at 6 h [29]: 5
Efficacy [30]: 11%
chromatographic logD [7]: 2.9
IC50 [8]: 9.6 nM
IC50 [9]: 21 nM
IC50 [10]: 4.8 nM
IC50 [11]: > 10000 nM
Activity [22]: 11.8%
concentration at 6 h [23]: 12 µM

IC50 [9]: 1.8 nM
CLH [25]: 18 µL/min/1e6 cells
SMILES: NC(=O)Cc1c(C(=O)N2CCC(O)(c3ccc(F)cn3)CC2)nn(-c2ccccc2Cl)c1-c1ccc(Cl)cc1
inhibition at 10 µM [26]: 38%
